Assay results reported in US8722849B2, “Polypeptides” (Novo Nordisk A/S, priority 2011, dated 2014).
Converted amounts (≈) assume the structure as drawn. Read-outs that look alike come from different tables or passages of the source. Starred links: 1 amine or outer side, 2 acyl side, 3 side chain; linkers in the order of their positions; H or OH if unused. Positions of bridges follow the written chain, without caps; N, C: chain ends. Non-standard residues stand in square brackets, D forms with d. Residues, ends and D or L forms follow the SMILES beside them. *: point of attachment. C20 diacid = O=C(O)CCCCCCCCCCCCCCCCCCC(=O)*; C18 diacid = O=C(O)CCCCCCCCCCCCCCCCC(=O)*; γGlu = O=C(O)[C@H](CCC(=O)[*:2])N[*:1]; Orn = NCCC[C@H](N)C(=O)O; AEEA = NCCOCCOCC(=O)O

Columns and labels:
[1] = target: T1, human amylin receptor (amylin 3(a) receptor: human calcitonin receptor + RAMP-3) (Homo sapiens, UniProt O60896+P30988); assay: Assay (II)a functional CRE-luciferase assay, human amylin receptor; assay type: cell-based; conditions: Table 2; BHK amylin 3(a)-receptor/CRE-luc cells
T1 construct: expressed in transfected cells; host or cells: BHK570
T1 sequence (P30988 25-474): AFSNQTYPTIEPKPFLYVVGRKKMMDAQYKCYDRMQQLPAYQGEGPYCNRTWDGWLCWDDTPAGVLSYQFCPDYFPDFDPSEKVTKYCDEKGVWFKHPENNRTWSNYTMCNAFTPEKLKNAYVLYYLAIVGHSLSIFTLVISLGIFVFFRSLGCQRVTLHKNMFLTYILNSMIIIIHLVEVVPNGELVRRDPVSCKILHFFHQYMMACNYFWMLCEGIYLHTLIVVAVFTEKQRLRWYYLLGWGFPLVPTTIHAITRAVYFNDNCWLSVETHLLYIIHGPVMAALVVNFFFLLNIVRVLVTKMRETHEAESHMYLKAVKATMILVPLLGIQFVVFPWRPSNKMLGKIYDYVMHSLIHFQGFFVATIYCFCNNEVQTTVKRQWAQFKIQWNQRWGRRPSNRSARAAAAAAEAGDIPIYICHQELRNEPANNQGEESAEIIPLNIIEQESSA
T1 sequence (O60896 24-148 partner): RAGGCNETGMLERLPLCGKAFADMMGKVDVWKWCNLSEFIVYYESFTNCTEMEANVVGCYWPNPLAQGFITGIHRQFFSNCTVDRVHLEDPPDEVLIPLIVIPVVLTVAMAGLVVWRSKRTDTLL

[2] = target: T2, human calcitonin receptor (Homo sapiens, UniProt P30988); assay: Assay (II)a functional CRE-luciferase assay, human calcitonin receptor; assay type: cell-based; conditions: Table 7; human calcitonin (CTa) receptor
T2 construct: expressed in transfected cells; host or cells: BHK570
T2 sequence (P30988 25-474): T1 sequence (P30988 25-474)

[3] = target: T3, rat amylin 3(a) receptor (rat calcitonin(a) receptor + rat RAMP3) (Rattus norvegicus, UniProt P32214+Q9JJ73); assay: Assay (II)b functional cAMP FlashPlate assay, rat amylin receptor; assay type: cell-based; conditions: Table 11
T3 construct: expressed in transfected cells; host or cells: BHK tk'ts 13
T3 sequence (P32214 25-479 isoform P32214-2 limits assumed): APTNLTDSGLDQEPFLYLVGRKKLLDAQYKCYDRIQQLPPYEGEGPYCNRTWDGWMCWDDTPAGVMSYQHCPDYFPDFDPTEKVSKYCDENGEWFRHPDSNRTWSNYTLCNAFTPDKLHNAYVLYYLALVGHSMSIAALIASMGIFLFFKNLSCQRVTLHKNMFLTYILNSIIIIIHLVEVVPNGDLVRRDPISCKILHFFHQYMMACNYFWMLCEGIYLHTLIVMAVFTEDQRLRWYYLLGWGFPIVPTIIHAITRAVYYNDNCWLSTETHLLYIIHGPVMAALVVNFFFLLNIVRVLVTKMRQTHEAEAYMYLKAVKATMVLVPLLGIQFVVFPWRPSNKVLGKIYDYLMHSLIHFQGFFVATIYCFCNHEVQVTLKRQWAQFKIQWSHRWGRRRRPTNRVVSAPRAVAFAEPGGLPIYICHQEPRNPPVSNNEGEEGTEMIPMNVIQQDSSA
T3 sequence (Q9JJ73 23-147 partner): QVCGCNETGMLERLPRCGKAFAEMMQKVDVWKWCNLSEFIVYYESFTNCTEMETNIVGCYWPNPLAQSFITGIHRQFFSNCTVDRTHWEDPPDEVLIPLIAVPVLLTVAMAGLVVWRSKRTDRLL
Summary of the method: (§1)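 cAMP accumulation in transiently transfected BHK tk'ts 13 cells, 100.000 cells/well, expressing rat calcitonin(a) receptor or its RAMP3 co-expression form (amylin 3(a)): 30 min stimulation with IBMX, 24 hours post-transfection. Readout by competition of cellular versus radiolabelled cAMP in FlashPlates, scintillation counted after 3 h.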

[4] = target: T4, rat calcitonin (a) receptor (Rattus norvegicus, UniProt P32214); assay: Assay (II)b functional cAMP FlashPlate assay, rat calcitonin receptor; assay type: cell-based; conditions: Table 11; read-out: CTa receptor rat EC50
T4 construct: expressed in transfected cells; host or cells: BHK tk'ts 13
T4 sequence (P32214 25-479 isoform P32214-2 limits assumed): T3 sequence (P32214 25-479 isoform P32214-2 limits assumed)
Summary of the method: as §1

[5] = Assay (IV) determination of solubility; assay type: physicochemical
Summary of the method: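 Eight 100 mM buffers (glycylglycine pH 3.0–5.0, bistrispropane pH 6.0–8.0) each received an equal volume of polypeptide dissolved in water at ~500 nmol/ml. Soluble polypeptide was measured by HPLC following 18 hours at room temperature and centrifugation.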

[6] = bistrispropane buffer, pH 6, pH 6.0, read-out: Solubility pH 6.0
[7] = bistrispropane buffer, pH 6.5, pH 6.5, read-out: Solubility pH 6.5
[8] = bistrispropane buffer, pH 7, pH 7.0, 18 hours at room temperature, Table 3, read-out: Solubility pH 7.0
[9] = bistrispropane buffer, pH 7, pH 7.0, read-out: Solubility pH 7.0
[10] = bistrispropane buffer, pH 7.5, pH 7.5, read-out: Solubility pH 7.5
[11] = bistrispropane buffer, pH 8, pH 8.0, read-out: Solubility pH 8.0
[12] = glycylglycine buffer, pH 3, pH 3.0, read-out: Solubility pH 3.0
[13] = glycylglycine buffer, pH 4, pH 4.0, 18 hours at room temperature, Table 2, read-out: Solubility pH 4.0
[14] = glycylglycine buffer, pH 4, pH 4.0, read-out: Solubility pH 4.0
[15] = glycylglycine buffer, pH 5, pH 5.0, read-out: Solubility pH 5.0

EC50 [1] | EC50 [2] | EC50 [3] | EC50 [4] | solubility at 18 h [5, 6] | solubility at 18 h [5, 7] | solubility at 18 h [5, 8] | solubility at 18 h ([5]; bistrispropane buffer, pH 7, pH 7.0, Table 8, read-out: Solubility pH 7.0) | solubility at 18 h ([5]; bistrispropane buffer, pH 7, pH 7.0, Table 9, read-out: Solubility pH 7.0) | solubility at 18 h [5, 9] | solubility at 18 h ([5]; bistrispropane buffer, pH 7.5, pH 7.5, Table 9, read-out: Solubility pH 7.5) | solubility at 18 h [5, 10] | solubility at 18 h [5, 11] | solubility at 18 h [5, 12] | solubility at 18 h [5, 13] | solubility at 18 h [5, 14] | solubility at 18 h [5, 15] | Structure (SMILES)
0.0515 nM | 0.0455 nM | 0.075 nM | 0.044 nM | > 200 µM | > 200 µM | > 200 µM | > 200 µM | > 200 µM | > 200 µM | > 200 µM | > 200 µM | > 200 µM | > 200 µM | > 200 µM | > 200 µM | > 200 µM | CC[C@H](C)[C@H](NC(=O)[C@@H]1CCCN1C(=O)CNC(=O)[C@H](Cc1ccccc1)NC(=O)[C@H](CC(N)=O)NC(=O)[C@H](CC(N)=O)NC(=O)[C@H](CO)NC(=O)[C@H](CO)NC(=O)[C@H](Cc1c[nH]cn1)NC(=O)[C@H](Cc1c[nH]cn1)NC(=O)[C@H](CC(C)C)NC(=O)[C@H](Cc1ccccc1)NC(=O)[C@H](CCC(=O)O)NC(=O)[C@H](C)NC(=O)[C@H](CC(C)C)NC(=O)[C@H](CCCNC(=N)N)NC(=O)[C@H](CCC(N)=O)NC(=O)[C@@H](NC(=O)[C@H](C)NC(=O)[C@@H]1CSSC[C@H](NC(=O)[C@H](CCCNC(=N)N)NC(=O)CNC(=O)CC[C@H](NC(=O)CCCCCCCCCCCCCCCCCCC(=O)O)C(=O)O)C(=O)N[C@@H](CC(N)=O)C(=O)N[C@@H]([C@@H](C)O)C(=O)N[C@@H](C)C(=O)N[C@@H]([C@@H](C)O)C(=O)N1)[C@@H](C)O)C(=O)N[C@@H](CC(C)C)C(=O)N1CCC[C@H]1C(=O)N1CCC[C@H]1C(=O)N[C@H](C(=O)N[C@@H](CC(N)=O)C(=O)N[C@H](C(=O)NCC(=O)N[C@@H](CO)C(=O)N[C@@H](CC(N)=O)C(=O)N[C@H](C(=O)N1CCC[C@H]1C(N)=O)[C@@H](C)O)C(C)C)[C@@H](C)O [Example 101, N-alpha-[(S)-4-Carboxy-4-(19-carboxynonadecanoylamino)butyryl]-Gly-[Arg1,Glu14,His17,Pro37]-pramlintide] ({C20 diacid-γGlu}-GRCNTATCATQRLAEFLHHSSNNFGPILPPTNVGSNTP-NH2; disulfide 3-8 (inferred))
0.0295 nM | 0.691 nM | 0.033 nM | 2.57 nM | > 200 µM | > 200 µM | > 200 µM |  |  | > 200 µM |  | > 200 µM | 197 µM (≈ 992 µg/mL) | > 200 µM | > 200 µM | > 200 µM | > 200 µM | CC[C@H](C)[C@H](NC(=O)[C@@H]1CCCN1C(=O)CNC(=O)[C@H](Cc1ccccc1)NC(=O)[C@H](CC(N)=O)NC(=O)[C@H](CC(N)=O)NC(=O)[C@H](CO)NC(=O)[C@H](CO)NC(=O)[C@H](CCCNC(=N)N)NC(=O)[C@H](Cc1c[nH]cn1)NC(=O)[C@H](CC(C)C)NC(=O)[C@H](Cc1ccccc1)NC(=O)[C@H](CCC(=O)O)NC(=O)[C@H](C)NC(=O)[C@H](CC(C)C)NC(=O)[C@H](CCCNC(=N)N)NC(=O)[C@H](CCC(N)=O)NC(=O)[C@@H](NC(=O)[C@H](C)NC(=O)[C@@H]1CSSC[C@H](NC(=O)[C@H](CCCN)NC(=O)[C@@H](CCCNC(=N)N)NC(=O)[C@@H](CCCNC(=N)N)NC(=O)COCCOCCNC(=O)COCCOCCNC(=O)CC[C@H](NC(=O)CCCCCCCCCCCCCCCCC(=O)O)C(=O)O)C(=O)N[C@@H](CC(N)=O)C(=O)N[C@@H]([C@@H](C)O)C(=O)N[C@@H](C)C(=O)N[C@@H]([C@@H](C)O)C(=O)N1)[C@@H](C)O)C(=O)N[C@@H](CC(C)C)C(=O)N1CCC[C@H]1C(=O)N1CCC[C@H]1C(=O)N[C@H](C(=O)N[C@@H](CC(N)=O)C(=O)N[C@H](C(=O)NCC(=O)N[C@@H](CO)C(=O)N[C@@H](CC(N)=O)C(=O)N[C@H](C(=O)N[C@@H](Cc1ccc(O)cc1)C(N)=O)[C@@H](C)O)C(C)C)[C@@H](C)O [Example 120, N-alpha-[2-(2-{2-[2-(2-{2-[(S)-4-Carboxy-4-(17-carboxyheptadecanoylamino)butyrylamino]ethoxy}ethoxy)acetylamino]ethoxy}ethoxy)acetyl]-D-Arg-D-Arg-[Orn1,Glu14,His17,Arg18]-pramlintide] ({C18 diacid-γGlu-AEEA-AEEA}-[dR][dR][Orn]CNTATCATQRLAEFLHRSSNNFGPILPPTNVGSNTY-NH2; disulfide 4-9 (inferred); C-terminus assumed)
